The source of these data is US20240246968A1, “SMALL MOLECULE INHIBITORS OF KRAS G12C MUTANT” (Merck Sharp & Dohme LLC, priority 2021, published 2024).

Assay [1] deals with Gppcp-bound recombinant K-Ras4B G12C mutant protein (amino acids 1-169, C51S/C80L/C118S) (Homo sapiens, UniProt P01116, C118S/C51S/C80L/G12C). The assay is described as follows: KRASG12C binding assay (LC-MS, compound binding rate). Particulars: test compound final concentration 0.5 μM, 25° C., 1 hour. In short, it runs like this: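 Gppcp-bound K-Ras4B G12C (1-169; C51S/C80L/C118S), 50 nM in TBS with 0.1 mM TCEP, 0.25 mM MgCl2, 50 μM Gppcp, exposed to compound at 0.5 μM final for 1 h at 25 °C. Quenched with formic acid and analysed by intact-protein ESI LC-MS. Binding rate is the mono-adduct signal over total KRAS signal; graded A (≥80%) to E (<20%).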

Assay [2] has as its target T1, interaction between recombinant K-Ras4B G12C mutant protein and cRAF RAS-binding domain (cRAF-RBD) (Homo sapiens, UniProt P01116, G12C).
T1 construct: made in house; host or cells: E. coli
Briefly: Inhibitory activity on interaction between KRAS G12C and cRAF (Alpha technology). Particulars: GMPPNP-bound KRAS G12C incubated with compound at 25° C. for 1 hour, then cRAF-RBD; Alpha signal. Format: biochemical. The procedure, abridged: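 GMPPNP-loaded His-tagged KRAS G12C (aa 1-169, E. coli) preincubated with compound 1 h at 25° C in Tris pH 7.5, 100 mM NaCl, 1 mM MgCl2, TCEP, 0.1% Tween 20; cRAF-RBD (aa 50-132) added, 1.5 h RT, Alpha signal read. DMSO = 0%, GDP-bound KRAS = 100% inhibition; IC50 from dose titration fit.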

Assay [3] relates to MIA PaCa-2 cells. The assay is described as follows: Growth inhibition activity on KRAS-G12C mutant cell line (MIA PaCa-2), CellTiter-Glo 3D. Conditions: MIA PaCa-2, 3-day culture with compound. It counts as cell-based, human. In short, it runs like this: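 Cells in RPMI1640 with 10% FBS were seeded in U-bottom plates and cultured 1 day at 37 °C, 5% CO2, then exposed to compound (0.2% DMSO final) for 3 more days. Viability read by CellTiter-Glo 3D luminescence; IC50 from growth inhibition relative to untreated wells.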

Take `CO[C@H]1CC[C@H](NC/C=C/C(=O)Nc2c(F)cc(C(=O)c3ccc4c(-c5c(C)cc6c(nc(CO)n6C)c5Cl)cccn34)cc2F)CC1` [Example 58]: the binding rate entry in assay [1] is recorded as “A (A binding rate of 80% or more is rated “A”)”. In addition, the IC50 in assay [2] amounted to 0.035 µM; in assay [3] (Homo sapiens, MIA PaCa-2, 72 h), 0.069 µM.
For the molecule `Cc1nc2c(Cl)c(-c3cccn4c(C(=O)c5cc(F)c(NC(=O)/C=C/CNC(C)(C)C)c(F)c5)ccc34)c(C(F)(F)F)cc2n1C` (single isomer, unassigned) [Example 56-2, (E)-4-(tert-butylamino)-N-(4-(8-(4-chloro-1,2-dimethyl-6-(trifluoromethyl)-1H-benzo[d]imidazol-5-yl)indolizine-3-carbonyl)-2,6-difluorophenyl)but-2-enamide], the binding rate result in assay [1] is given as “A (A binding rate of 80% or more is rated “A”)”. The IC50 was 0.021 µM in assay [2] and 0.029 µM in assay [3].
For the molecule `Cc1nc2cc(-c3cccn4c(C(=O)c5cc(F)c(NC(=O)/C=C/CNC6(CO)CCCCC6)c(F)c5)ccc34)c(C(F)(F)F)cc2n1C` [Example 69, (E)-N-(4-(8-(1,2-dimethyl-6-(trifluoromethyl)-1H-benzo[d]imidazol-5-yl)indolizine-3-carbonyl)-2,6-difluorophenyl)-4-((1-(hydroxymethyl)cyclohexyl)amino)but-2-enamide], the binding rate result in assay [1] is recorded as “A (A binding rate of 80% or more is rated “A”)”. In addition, the IC50 came to 0.087 µM in assay [2] and 0.34 µM in assay [3] (Homo sapiens, MIA PaCa-2, 72 h).
As for `CCc1nc2c(-c3c(C(F)(F)F)cc4c(nc(C)n4C)c3OC)cccn2c1C(=O)c1cc(F)c(NC(=O)/C=C/CN[C@H]2CC[C@H](OC)CC2)c(F)c1` (single isomer, unassigned) [Example 102-1, (E)-N-(4-(2-ethyl-8-(4-methoxy-1,2-dimethyl-6-(trifluoromethyl)-1H-benzo[d]imidazol-5-yl)imidazo[1,2-a]pyridine-3-carbonyl)-2,6-difluorophenyl)-4-(((1r,4r)-4-methoxycyclohexyl)amino)but-2-enamide], the binding rate result in assay [1] is “A (A binding rate of 80% or more is rated “A”)”. Also, the half-maximal inhibitory concentration (IC50) in assay [2] amounted to 0.0572 µM; in assay [3] it was 0.0201 µM.
For `CO[C@H](C)c1nc2c(Cl)c(-c3cccn4c(C(=O)c5cc(F)c(NC(=O)/C=C/CN[C@H]6CC[C@H](OC)CC6)c(F)c5)ccc34)c(C)cc2n1C` (single isomer, unassigned) [Example 48], in that order: “A (A binding rate of 80% or more is rated “A”)”, 0.11 µM and 0.23 µM.
As to `Cc1nc2cc(-c3cccn4c(C(=O)c5cc(F)c(NC(=O)/C=C/CNC6(C)CC6)c(F)c5)ccc34)c(C(F)(F)F)cc2n1C` [Example 62, (E)-N-(4-(8-(1,2-dimethyl-6-(trifluoromethyl)-1H-benzo[d]imidazol-5-yl)indolizine-3-carbonyl)-2,6-difluorophenyl)-4-((1-methylcyclopropyl)amino)but-2-enamide], in assay [1], the binding rate entry is given as “A (A binding rate of 80% or more is rated “A”)”. Also, the IC50 amounted to 0.066 µM in assay [2] and 0.14 µM in assay [3] (Homo sapiens, MIA PaCa-2, 72 h).
With `CCc1nc2cc(-c3cccn4c(C(=O)c5cc(F)c(NC(=O)/C=C/CN[C@H]6CC[C@H](OC)CC6)c(F)c5)ccc34)c(C(F)(F)F)cc2n1C` [Example 3, (E)-N-(4-(8-(2-ethyl-1-methyl-6-(trifluoromethyl)-1H-benzo[d]imidazol-5-yl)indolizine-3-carbonyl)-2,6-difluorophenyl)-4-(((1r,4r)-4-methoxycyclohexyl)amino)but-2-enamide], the binding rate entry in assay [1] was “A (A binding rate of 80% or more is rated “A”)”. In addition, the IC50 worked out at 0.072 µM in assay [2] and 0.052 µM in assay [3] (Homo sapiens, MIA PaCa-2, 72 h).
Consider `C#Cc1cc(C(=O)c2cc(F)c(NC(=O)/C=C/CN[C@H]3CC[C@H](OC)CC3)c(F)c2)n2cccc(-c3c(C)cc4c(nc(C)n4C)c3Cl)c12` [Example 100], for which, in assay [1], the binding rate result is “A (A binding rate of 80% or more is rated “A”)”. For the same molecule, the half-maximal inhibitory concentration (IC50) in assay [2] was determined as 0.071 µM; in assay [3] (Homo sapiens, MIA PaCa-2, 72 h), 0.096 µM.
`COc1c(-c2cccn3c(C(=O)c4cc(F)c(NC(=O)/C=C/CNC5CCOCC5)c(F)c4)ccc23)c(C(F)(F)F)cc2c1nc(C)n2C` (single isomer, unassigned) [Example 61-1, (E)-N-(2,6-difluoro-4-(8-(4-methoxy-1,2-dimethyl-6-(trifluoromethyl)-1H-benzo[d]imidazol-5-yl)indolizine-3-carbonyl)phenyl)-4-((tetrahydro-2H-pyran-4-yl)amino)but-2-enamide]: in assay [1], the binding rate result is “B (a binding rate of 60% or more and less than 80% is rated “B”)”. Moreover, the IC50 worked out at 1.9 µM in assay [2] and 2.3 µM in assay [3].
In the case of `Cc1nc2cc(-c3cccn4c(C(=O)c5cc(F)c(NC(=O)/C=C/CNC6(CO)CCOCC6)c(F)c5)ccc34)c(C(F)(F)F)cc2n1C` [Example 70, (E)-N-(4-(8-(1,2-dimethyl-6-(trifluoromethyl)-1H-benzo[d]imidazol-5-yl)indolizine-3-carbonyl)-2,6-difluorophenyl)-4-((4-(hydroxymethyl)tetrahydro-2H-pyran-4-yl)amino)but-2-enamide], the binding rate entry in assay [1] was “A (A binding rate of 80% or more is rated “A”)”. The 50% inhibitory concentration (IC50) amounted to 0.07 µM in assay [2] and 0.21 µM in assay [3] (Homo sapiens, MIA PaCa-2, 72 h).
On the same counts, the results for `CO[C@H]1CC[C@H](NC/C=C/C(=O)Nc2c(F)cc(C(=O)c3ccc4c(-c5c(C(F)(F)F)cc6c(nc(CF)n6C)c5Cl)cccn34)cc2F)CC1` [Example 68] are “A (A binding rate of 80% or more is rated “A”)”, 0.077 µM and 0.067 µM.
For `CO[C@H](C)c1nc2c(Cl)c(-c3cccn4c(C(=O)c5cc(F)c(NC(=O)/C=C/CNC(C)(C)C)c(F)c5)ccc34)c(C)cc2n1C` (single isomer, unassigned) [Example 50], the binding rate entry in assay [1] is listed as “A (A binding rate of 80% or more is rated “A”)”. For the same molecule, the IC50 in assay [2] was 0.25 µM; in assay [3], 0.22 µM.
Regarding `CO[C@H]1CC[C@H](NC/C=C/C(=O)Nc2c(F)cc(C(=O)c3ccc4c(-c5cc6nc(C)n(C)c6cc5C(F)(F)F)cccn34)cc2F)CC1` [Example 2, (E)-N-(4-(8-(1,2-dimethyl-6-(trifluoromethyl)-1H-benzo[d]imidazol-5-yl)indolizine-3-carbonyl)-2,6-difluorophenyl)-4-(((1r,4r)-4-methoxycyclohexyl)amino)but-2-enamide], the binding rate entry in assay [1] is “A (A binding rate of 80% or more is rated “A”)”. The IC50 is 0.06 µM in assay [2] and 0.057 µM in assay [3] (Homo sapiens, MIA PaCa-2, 72 h).
On the same counts, the results for `CO[C@H]1CC[C@H](NC/C=C/C(=O)Nc2c(F)cc(C(=O)c3c(C)nc4c(-c5cc6nc(C)n(C)c6cc5C(F)(F)F)cccn34)cc2F)CC1` [Example 51, (E)-N-(4-(8-(1,2-dimethyl-6-(trifluoromethyl)-1H-benzo[d]imidazol-5-yl)-2-methylimidazo[1,2-a]pyridine-3-carbonyl)-2,6-difluorophenyl)-4-(((1r,4r)-4-methoxycyclohexyl)amino)but-2-enamide] are “A (A binding rate of 80% or more is rated “A”)”, 0.057 µM and 0.12 µM.
For the molecule `CO[C@H](C)c1nc2c(Cl)c(-c3cccn4c(C(=O)c5cc(F)c(NC(=O)/C=C/CNC(C)(C)C)c(F)c5)ccc34)c(C)cc2n1C` (single isomer, unassigned) [Example 49], the binding rate entry in assay [1] is reported as “A (A binding rate of 80% or more is rated “A”)”. The 50% inhibitory concentration (IC50) is 0.019 µM in assay [2] and 0.049 µM in assay [3].
On the same counts, the results for `COc1cc2c(nc(C)n2C)c(Cl)c1-c1cccn2c(C(=O)c3cc(F)c(NC(=O)/C=C/CN[C@H]4CC[C@H](OC)CC4)c(F)c3)ccc12` (single isomer, unassigned) [Example 35-1, (E)-N-(4-(8-(4-chloro-6-methoxy-1,2-dimethyl-1H-benzo[d]imidazol-5-yl)indolizine-3-carbonyl)-2,6-difluorophenyl)-4-(((1r,4r)-4-methoxycyclohexyl)amino)but-2-enamide] are “A (A binding rate of 80% or more is rated “A”)”, 0.029 µM and 0.035 µM.
As for `COCc1nc2c(Cl)c(-c3cccn4c(C(=O)c5cc(F)c(NC(=O)/C=C/CNC(C)(C)C)c(F)c5)ccc34)c(C)cc2n1C` [Example 86, (E)-4-(tert-butylamino)-N-(4-(8-(4-chloro-2-(methoxymethyl)-1,6-dimethyl-1H-benzo[d]imidazol-5-yl)indolizine-3-carbonyl)-2,6-difluorophenyl)but-2-enamide], the binding rate result in assay [1] was “A (A binding rate of 80% or more is rated “A”)”. Also, the IC50 in assay [2] came out at 0.04 µM; in assay [3] (Homo sapiens, MIA PaCa-2, 72 h), 0.081 µM.
